# In PMC12000319, “Proton conductance by human uncoupling protein 1 is inhibited by purine and pyrimidine nucleotides” (The EMBO Journal, 2025):
# Where “and” joins values, the source holds several entries; their conditions need not be identical. Equal entries are not always repeated. Where two headings read alike, the source gives them in different places.
# Experiments:
# UCP1 [1] = system: UCP1; design: method as in Heaton and Nicholls, 1977; settings: ref Heaton and Nicholls, 1977; cited from earlier work
# human DIC (SLC25A10) = molecular target: T1, human DIC (SLC25A10) (Homo sapiens, UniProt Q9UBX3); experiment: Differential scanning fluorimetry (nanoDSF) thermal stability shift assay; format: binding; settings: 1 mM nucleotide, pH 6.0, single repeats (source data Fig. 4A)
# T1 construct: His8 (N, cleaved yes); Factor Xa protease cleavage site (N, cleaved yes); made in house; host or cells: Saccharomyces cerevisiae protease-deficient strain BJ2186
# T1 sequence (Q9UBX3 1-287): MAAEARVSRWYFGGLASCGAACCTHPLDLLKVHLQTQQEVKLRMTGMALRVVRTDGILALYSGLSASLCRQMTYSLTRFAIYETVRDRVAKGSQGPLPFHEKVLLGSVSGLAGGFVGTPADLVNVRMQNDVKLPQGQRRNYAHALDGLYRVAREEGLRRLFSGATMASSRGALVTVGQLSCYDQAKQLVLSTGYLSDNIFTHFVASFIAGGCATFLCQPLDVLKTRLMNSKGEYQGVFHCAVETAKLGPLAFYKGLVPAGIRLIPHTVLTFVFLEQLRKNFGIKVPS
# UCP1 [2] = molecular target: T2, UCP1 (Homo sapiens, UniProt P25874); experiment: as above; format: binding; settings: for ΔTm at 1000 µM: read-out: thermal shift (ΔTm)
# T2 construct: His8 (N, cleaved yes); Factor Xa protease cleavage site (N, cleaved yes); made in house; host or cells: Saccharomyces cerevisiae strain W303.1B
# T2 sequence (P25874 1-307): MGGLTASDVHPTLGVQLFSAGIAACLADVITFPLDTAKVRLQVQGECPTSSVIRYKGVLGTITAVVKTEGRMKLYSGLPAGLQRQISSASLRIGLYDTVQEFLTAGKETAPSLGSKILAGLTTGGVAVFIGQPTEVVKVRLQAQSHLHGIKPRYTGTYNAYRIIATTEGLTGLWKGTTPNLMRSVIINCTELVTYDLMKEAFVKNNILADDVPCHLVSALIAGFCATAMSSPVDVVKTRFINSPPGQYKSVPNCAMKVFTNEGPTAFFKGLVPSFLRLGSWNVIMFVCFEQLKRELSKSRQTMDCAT
# UCP1 [3] = system: UCP1; design: method as in Heaton and Nicholls, 1977; Divakaruni et al, 2012; settings: whole mitochondria; ref Heaton and Nicholls, 1977; Divakaruni et al, 2012; cited from earlier work
# UCP1 [4] = molecular target: T2, UCP1; experiment: Isothermal titration calorimetry of nucleotide binding; design: isotherm data point (enthalpy change per injection): unit not given here; settings: for isotherm data point (enthalpy change per injection): representative isotherm, pH 6.0, 20 °C;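 as to all read-outs here: purified human UCP1 in cacodylate buffer with lauryl maltose neopentyl glycol and cardiolipin, titrated with nucleotides, isotherms fitted by one-site model yielding ΔH, Kd and stoichiometry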
smiles,measurement,setting,value
"O=c1ccn([C@@H]2O[C@H](CO[P@@](=O)(O)O[P@@](=O)(O)OP(=O)(O)O)[C@@H](O)[C@H]2O)c(=O)[nH]1 (stereo in doubt) [UTP, uridine triphosphate]",inhibition of proton conductance,UCP1 [1],significantly lower than that of purine nucleotides
same,change in apparent melting temperature (ΔTm) of hDIC,human DIC (SLC25A10),0.8 and 0.6
same,temperature shift (ΔTm),"UCP1 [2]; 1 mM nucleotide, pH 6.0, detergent-solubilised UCP1, mean of three biological repeats",15.3 °C
same,effect of Ca2+ or Mg2+ on nucleotide binding to UCP1 (ΔTm),"UCP1 [2]; 1 mM nucleotide, pH 6.0, range of Ca2+ or Mg2+ concentrations, until supramaximal concentrations",no difference for either cation
same,ΔTm at 1000 µM,"UCP1 [2]; pH 6, 1 mM nucleotide, pH 6.0, single repeats (source data Fig. 1D)",15.7 °C
same,ΔTm at 1000 µM,"UCP1 [2]; pH 6.5, 1 mM nucleotide, pH 6.5, single repeats (source data Fig. 1D)",11.1 °C
same,ΔTm at 1000 µM,"UCP1 [2]; pH 7, 1 mM nucleotide, pH 7.0, single repeats (source data Fig. 1D)",6.3 °C
same,ΔTm at 1000 µM,"UCP1 [2]; pH 7.5, 1 mM nucleotide, pH 7.5, single repeats (source data Fig. 1D)",1.4 °C
same,competition with GDP binding,UCP1 [3],could only weakly compete with GDP binding
same,binding affinity to UCP1 (in words),UCP1 [4]; ITC,intermediary affinities
same,isotherm data point (enthalpy change per injection),UCP1 [4]; Molar ratio (Nucleotide/UCP) 0.120417,-22.5081
same,isotherm data point (enthalpy change per injection),UCP1 [4]; Molar ratio (Nucleotide/UCP) 0.181226,-22.8003
same,isotherm data point (enthalpy change per injection),UCP1 [4]; Molar ratio (Nucleotide/UCP) 0.242439,-21.4037
same,isotherm data point (enthalpy change per injection),UCP1 [4]; Molar ratio (Nucleotide/UCP) 0.304059,-20.9646
same,isotherm data point (enthalpy change per injection),UCP1 [4]; Molar ratio (Nucleotide/UCP) 0.366087,-21.4794
same,isotherm data point (enthalpy change per injection),UCP1 [4]; Molar ratio (Nucleotide/UCP) 0.428528,-19.8691
same,isotherm data point (enthalpy change per injection),UCP1 [4]; Molar ratio (Nucleotide/UCP) 0.491383,-17.9061
same,isotherm data point (enthalpy change per injection),UCP1 [4]; Molar ratio (Nucleotide/UCP) 0.554656,-18.3443
same,isotherm data point (enthalpy change per injection),UCP1 [4]; Molar ratio (Nucleotide/UCP) 0.618348,-16.1153
same,isotherm data point (enthalpy change per injection),UCP1 [4]; Molar ratio (Nucleotide/UCP) 0.682464,-14.9337
same,isotherm data point (enthalpy change per injection),UCP1 [4]; Molar ratio (Nucleotide/UCP) 0.747006,-12.0255
same,isotherm data point (enthalpy change per injection),UCP1 [4]; Molar ratio (Nucleotide/UCP) 0.811976,-11.5031
same,isotherm data point (enthalpy change per injection),UCP1 [4]; Molar ratio (Nucleotide/UCP) 0.877378,-10.3349
same,isotherm data point (enthalpy change per injection),UCP1 [4]; Molar ratio (Nucleotide/UCP) 0.943214,-7.729
same,isotherm data point (enthalpy change per injection),UCP1 [4]; Molar ratio (Nucleotide/UCP) 1.00949,-6.6657
same,isotherm data point (enthalpy change per injection),UCP1 [4]; Molar ratio (Nucleotide/UCP) 1.0762,-5.447
same,isotherm data point (enthalpy change per injection),UCP1 [4]; Molar ratio (Nucleotide/UCP) 1.14336,-3.759
same,isotherm data point (enthalpy change per injection),UCP1 [4]; Molar ratio (Nucleotide/UCP) 1.21096,-3.295
same,isotherm data point (enthalpy change per injection),UCP1 [4]; Molar ratio (Nucleotide/UCP) 1.27901,-1.9786
same,isotherm data point (enthalpy change per injection),UCP1 [4]; Molar ratio (Nucleotide/UCP) 1.34751,-1.408
same,isotherm data point (enthalpy change per injection),UCP1 [4]; Molar ratio (Nucleotide/UCP) 1.41647,-0.3952
same,isotherm data point (enthalpy change per injection),UCP1 [4]; Molar ratio (Nucleotide/UCP) 1.48589,-0.4843
same,isotherm data point (enthalpy change per injection),UCP1 [4]; Molar ratio (Nucleotide/UCP) 1.55577,-0.1953
same,isotherm data point (enthalpy change per injection),UCP1 [4]; Molar ratio (Nucleotide/UCP) 1.62611,-0.1185
same,isotherm data point (enthalpy change per injection),UCP1 [4]; Molar ratio (Nucleotide/UCP) 1.69692,0.2895
same,isotherm data point (enthalpy change per injection),UCP1 [4]; Molar ratio (Nucleotide/UCP) 1.76819,-0.544
same,isotherm data point (enthalpy change per injection),UCP1 [4]; Molar ratio (Nucleotide/UCP) 1.83995,-0.2075
same,isotherm data point (enthalpy change per injection),UCP1 [4]; Molar ratio (Nucleotide/UCP) 1.91217,-0.08977
same,isotherm data point (enthalpy change per injection),UCP1 [4]; Molar ratio (Nucleotide/UCP) 1.98488,0.02152
